Read-outs that look alike come from different tables or passages of the source.
Columns and labels:
Type in all cases: biochemical
human 11β-HSD2 = target: T1, human 11β-HSD2 (Homo sapiens, UniProt P80365); experiment: Enzyme inhibitory activity, human 11β-HSD2 (lysate of stably expressing HEK293 cells, cortisol by competitive ELISA); conditions: Table 1; human 11β-HSD2, cell lysate, 37° C. for 1 hour; read-out: h HSD2 in vitro assay (IC50 uM)
T1 construct: The obtained PCR products of about 0.9 kbp, 1.2 kbp, and 0.9 kbp were subcloned into an expression vector pcDNA3.1+/Zeo; expressed in transfected cells
T1 sequence (P80365 1-405): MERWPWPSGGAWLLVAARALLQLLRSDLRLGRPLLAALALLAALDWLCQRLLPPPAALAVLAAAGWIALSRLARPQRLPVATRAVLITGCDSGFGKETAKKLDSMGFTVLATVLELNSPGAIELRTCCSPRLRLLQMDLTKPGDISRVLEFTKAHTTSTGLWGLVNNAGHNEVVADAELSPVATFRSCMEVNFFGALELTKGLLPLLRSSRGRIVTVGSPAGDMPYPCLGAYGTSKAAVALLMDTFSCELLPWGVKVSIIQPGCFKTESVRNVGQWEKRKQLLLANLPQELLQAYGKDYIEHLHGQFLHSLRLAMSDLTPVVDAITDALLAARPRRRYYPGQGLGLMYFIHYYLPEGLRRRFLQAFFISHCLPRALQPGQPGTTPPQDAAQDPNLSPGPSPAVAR
Protocol: 1. Human 11β-HSD1-, Human 11β-HSD2- and Mouse 11β-HSD1-Gene Clonings and Establishment of Stably Expressing Cells
Human 11β-HSD1-, human 11β-HSD2-, and mouse 11β-HSD1-gene clonings were conducted using as a template a reverse transcription product of human-liver RNA, human-kidney RNA (CELL APPLICATIONS), and mouse-kidney RNA respectively, by means of PCR cloning with reference to nucleotide sequences of Genbank Accession Nos. NM_005525, NM_000196, and NM_008288. The obtained PCR products of about 0.9 kbp, 1.2 kbp, and 0.9 kbp were subcloned into an expression vector pcDNA3.1+/Zeo (Invitrogen).
Human 11β-HSD1- and human 11β-HSD2-expressing vectors were transfected into human kidney-derived cell line, HEK293 cells, using a transfection reagent, jet PEI (Funakoshi). Mouse 11β-HSD1 was transfected to Chinese hamster ovary-derived cell line, CHO-K1 cells. Selection was conducted with 200-400 μg/mL of zeocine (Invitrogen) to provide stably expressing-cell clones. The stably expressing cells were suspended in buffer solution A (20 mmol/L Tris-HCl, pH 7.4, 250 mmol/L sucrose, 1 mmol/L EGTA, 1 mmol/L EDTA, 1 mmol/L MgCl2), sonicated, and then stored at −80° C.
2. Assay of Enzyme Inhibitory Activity
An enzymatic reaction was conducted using a polystyrene 96-well plate. Each well was added with 1 μL of a test agent dissolved in DMSO and then diluted (0.003 to 3 mmol/L), and further added with 10 μL of cell lysate diluted to a concentration of 0.1 mg/mL to 0.4 mg/mL. Next, 90 μL of buffer solution A containing substrate (100 nmol/L cortisone or cortisol) and coenzyme (400 μmol/L NADPH or NAD+) was added and the mixture was incubated at 37° C. for 1 hour. The enzymatic reaction was stopped by treating at 95° C. for 3 minutes. Cortisol that was present in the reaction solution was determined by a competitive ELISA shown below.
Anti-rabbit IgG antibody (Chemi-con) diluted to 2 μg/mL with carbonate buffer solution (pH 9.6) was added in 100 μL each to a 96-well immuno plate (Nunc) and immobilized by an incubation at 4° C. overnight. 50 μL of enzymatic reaction solution was put onto the plates, and further, anti-cortisol antibody (Cosmo Bio) and HRP-labeled cortisol (Cosmo Bio), diluted with buffer solution B (25 mmol/L Tris-HCl pH 7.4, 137 mmol/L NaCl, 2.68 mmol/L KCl), were added in 50 μL respectively and incubated at 4° C. overnight. After washed three times with buffer solution B containing 0.05% Tween 20, the plates were allowed to develop color by adding 100 μL of color reagent, TMB (Moss). The color reaction was stopped by 25 μL of 1 mol/L sulfuric acid and the absorbance was determined at 450 nm with a microplate reader (Molecular Device, VersaMax).
The values of human 11β-HSD1, human 11β-HSD2, and mouse 11β-HSD1 activities were subtracted from 100, and the resultant values were regarded as the respective 11β-HSD inhibition rates of example compounds. […] The comparison of human 11β-HSD1 and human 11β-HSD2 inhibiting activities is shown in Table 1, and the comparison of human 11β-HSD1 and mouse 11β-HSD1 inhibiting activities is shown in Table 2.

human 11β-HSD1 = target: T2, human 11β-HSD1 (Homo sapiens, UniProt P28845); experiment: Enzyme inhibitory activity, human 11β-HSD1 (lysate of stably expressing HEK293 cells, cortisol by competitive ELISA); conditions: human 11β-HSD1, cell lysate, 37° C. for 1 hour, read-out: h HSD1 in vitro assay (IC50 uM)
T2 construct: The obtained PCR products of about 0.9 kbp, 1.2 kbp, and 0.9 kbp were subcloned into an expression vector pcDNA3.1+/Zeo; expressed in transfected cells
T2 sequence (P28845 whole entry): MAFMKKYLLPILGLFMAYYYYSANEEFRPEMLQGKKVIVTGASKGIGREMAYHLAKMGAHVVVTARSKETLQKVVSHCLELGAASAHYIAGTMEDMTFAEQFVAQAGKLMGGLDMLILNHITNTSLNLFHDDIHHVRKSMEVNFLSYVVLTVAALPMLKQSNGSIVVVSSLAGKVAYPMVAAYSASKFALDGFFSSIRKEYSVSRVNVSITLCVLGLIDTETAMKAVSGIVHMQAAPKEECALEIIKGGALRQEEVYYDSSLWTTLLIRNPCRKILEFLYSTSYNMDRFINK
Method in brief: (§1)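 Sonicated lysates of stably transfected cells (diluted to 0.1–0.4 mg/mL before addition) reacted for 1 h at 37 °C in pH 7.4 Tris/sucrose/EGTA/EDTA/MgCl2 buffer with 100 nmol/L cortisone or cortisol and 400 μmol/L NADPH or NAD+, then were heat-stopped at 95 °C. Inhibition rate = 100 minus residual activity.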

mouse 11β-HSD1 = target: T3, mouse 11β-HSD1 (Mus musculus, UniProt P50172); experiment: Enzyme inhibitory activity, mouse 11β-HSD1 (lysate of stably expressing CHO-K1 cells, cortisol by competitive ELISA); conditions: Table 2; mouse 11β-HSD1, cell lysate, 37° C. for 1 hour; read-out: m HSD1 in vitro assay (IC50 uM)
T3 construct: The obtained PCR products of about 0.9 kbp, 1.2 kbp, and 0.9 kbp were subcloned into an expression vector pcDNA3.1+/Zeo; expressed in transfected cells
T3 sequence (P50172 whole entry): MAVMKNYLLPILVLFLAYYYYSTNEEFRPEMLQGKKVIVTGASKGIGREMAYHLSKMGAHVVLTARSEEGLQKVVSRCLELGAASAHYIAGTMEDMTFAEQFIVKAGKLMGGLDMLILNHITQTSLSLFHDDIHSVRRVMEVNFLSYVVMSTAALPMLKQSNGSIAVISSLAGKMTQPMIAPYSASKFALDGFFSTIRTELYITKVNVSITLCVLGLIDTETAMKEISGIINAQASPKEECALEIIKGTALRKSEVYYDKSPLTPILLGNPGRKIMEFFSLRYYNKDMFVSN
Method in brief: as §1

IC50 (human 11β-HSD2) | IC50 (human 11β-HSD1; Table 1) | IC50 (mouse 11β-HSD1) | IC50 (human 11β-HSD1; Table 2) | SMILES
19 µM | 0.036 µM |  |  | CC1(C)C(=O)N(C2C3CC4CC(C3)CC2C4)N1/C=C/c1ccccc1 (centres unmarked) [Example 265, 4,4-dimethyl-1-[(E)-2-phenylethenyl]-2-(adamantan-2-yl)-1,2-diazetidin-3-one]
3 to 30 µM | 0.013 µM | 0.15 µM |  | CC1(C)C(=O)N([C@H]2C3CC4CC2C[C@](Cl)(C4)C3)N1c1ccccc1O [Example 253, trans-2-(5-chloroadamantan-2-yl)-1-(2-hydroxyphenyl)-4,4-dimethyl-1,2-diazetidin-3-one]
1.1 µM | 0.0082 µM | 0.15 µM |  | CSc1ccccc1CN1N(C2C3CC4CC(C3)CC2C4)C(=O)C1(C)C (centres unmarked) [Example 60, 4,4-dimethyl-1-[2-(methylthio)benzyl]-2-(adamantan-2-yl)-1,2-diazetidin-3-one]
> 30 µM | 0.27 µM |  |  | CC1(C)C(=O)N(C2C3CC4CC(C3)CC2C4)N1C(=O)c1ccccc1Br (centres unmarked) [Example 120, 1-[(2-bromophenyl)carbonyl]-4,4-dimethyl-2-(adamantan-2-yl)-1,2-diazetidin-3-one]
3 to 30 µM | 0.062 µM |  |  | CC1(C)C(=O)N(C2C3CC4CC(C3)CC2C4)N1c1ccccc1 (centres unmarked) [Example 181, 4,4-dimethyl-1-phenyl-2-(adamantan-2-yl)-1,2-diazetidin-3-one]
> 30 µM | 0.026 µM |  |  | COc1ccc(N2N(C3C4CC5CC(C4)CC3C5)C(=O)C2(C)C)cc1 (centres unmarked) [Example 203, 1-(4-methoxyphenyl)-4,4-dimethyl-2-(adamantan-2-yl)-1,2-diazetidin-3-one]
3 to 30 µM | 0.028 µM |  |  | CC1(C)C(=O)N([C@H]2C3CC4CC2C[C@@](O)(C4)C3)N1c1ccc2ccccc2c1 [Example 248, cis-2-(5-hydroxyadamantan-2-yl)-4,4-dimethyl-1-(naphthalen-2-yl)-1,2-diazetidin-3-one]
3 to 30 µM | 0.02 µM |  |  | CC1(C)C(=O)N(C2C3CC4CC(C3)CC2C4)N1c1ccc(Cl)cc1Cl (centres unmarked) [Example 208, 1-(2,4-dichlorophenyl)-4,4-dimethyl-2-(adamantan-2-yl)-1,2-diazetidin-3-one]
3 to 30 µM | 0.093 µM |  |  | CC1(C)C(=O)N(C2C3CC4CC(C3)CC2C4)N1c1cccc(Cl)c1 (centres unmarked) [Example 190, 1-(3-chlorophenyl)-4,4-dimethyl-2-(adamantan-2-yl)-1,2-diazetidin-3-one]
3 to 30 µM | 0.022 µM |  |  | CC1(C)C(=O)N(C2C3CC4CC(C3)CC2C4)N1c1ccccc1Cl (centres unmarked) [Example 189, 1-(2-chlorophenyl)-4,4-dimethyl-2-(adamantan-2-yl)-1,2-diazetidin-3-one]
> 30 µM | 0.72 µM |  |  | CC1(C)C(=O)N(C2C3CC4CC(C3)CC2C4)N1C(=O)c1ccccc1F (centres unmarked) [Example 119, 1-[(2-fluorophenyl)carbonyl]-4,4-dimethyl-2-(adamantan-2-yl)-1,2-diazetidin-3-one]
14 µM | 0.071 µM |  |  | CC1(C)C(=O)N(C2C3CC4CC(C3)CC2C4)N1C(=O)c1cccc2ccccc12 (centres unmarked) [Example 141, 4,4-dimethyl-1-(naphthalen-1-ylcarbonyl)-2-(adamantan-2-yl)-1,2-diazetidin-3-one]
> 30 µM | 0.088 µM |  |  | CC1(C)C(=O)N([C@H]2C3CC4CC2C[C@](O)(C4)C3)N1c1cccc(Cl)c1Cl [Example 231, trans-1-(2,3-dichlorophenyl)-2-(5-hydroxyadamantan-2-yl)-4,4-dimethyl-1,2-diazetidin-3-one]
 |  | 0.23 µM | 0.56 µM | CC1(C)C(=O)N(C2C3CC4CC(C3)CC2C4)N1c1ccccc1O (centres unmarked) [Example 219, 1-(2-hydroxyphenyl)-4,4-dimethyl-2-(adamantan-2-yl)-1,2-diazetidin-3-one]
 |  | 0.064 µM | 0.25 µM | CC1(C)C(=O)N(C2C3CC4CC(C3)CC2C4)N1Cc1cccc(Cl)c1F (centres unmarked) [Example 59, 1-(3-chloro-2-fluorobenzyl)-4,4-dimethyl-2-(adamantan-2-yl)-1,2-diazetidin-3-one]
